Reference: ChEMBL document CHEMBL1140811, “Inhibition of dipeptidyl peptidase-IV (DPP-IV) by atorvastatin” (Bioorg Med Chem Lett, 2008)
Calls of active or inactive are those of the source. The rule behind the calls is not given here.

Key:
[1] = molecular target: Dipeptidyl peptidase 4 (Sus scrofa) (UniProt P22411); experiment: Inhibition of pig DPP4 at 500 uM
[2] = molecular target: T1, Dipeptidyl peptidase 4 (Homo sapiens, UniProt P27487); experiment: Inhibition of DPP4 at 30 mM
Target sequence in this assay (P27487 whole entry, looked up): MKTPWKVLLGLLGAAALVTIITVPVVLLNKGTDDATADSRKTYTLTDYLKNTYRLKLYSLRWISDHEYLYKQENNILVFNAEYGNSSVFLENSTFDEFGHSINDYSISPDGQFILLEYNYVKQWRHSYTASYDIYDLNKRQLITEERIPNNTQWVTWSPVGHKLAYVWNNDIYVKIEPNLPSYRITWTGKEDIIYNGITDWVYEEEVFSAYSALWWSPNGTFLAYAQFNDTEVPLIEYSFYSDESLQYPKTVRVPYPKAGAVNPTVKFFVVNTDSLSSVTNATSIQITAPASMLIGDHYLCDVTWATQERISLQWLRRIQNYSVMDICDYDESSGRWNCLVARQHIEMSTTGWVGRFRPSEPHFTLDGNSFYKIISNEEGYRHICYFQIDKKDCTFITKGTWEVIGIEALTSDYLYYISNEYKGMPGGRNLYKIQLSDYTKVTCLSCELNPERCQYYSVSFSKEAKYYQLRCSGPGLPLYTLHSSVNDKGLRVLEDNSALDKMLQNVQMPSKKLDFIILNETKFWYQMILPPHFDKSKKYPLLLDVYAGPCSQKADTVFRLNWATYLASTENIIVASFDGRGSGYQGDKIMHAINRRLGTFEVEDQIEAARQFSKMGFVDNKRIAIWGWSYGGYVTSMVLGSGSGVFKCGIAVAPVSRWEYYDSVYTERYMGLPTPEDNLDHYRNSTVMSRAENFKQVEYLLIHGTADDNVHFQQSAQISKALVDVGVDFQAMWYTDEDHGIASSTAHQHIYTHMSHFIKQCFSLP

[3] = molecular target: T1, Dipeptidyl peptidase 4; experiment: Inhibition of DPP4 upto 3.3 mM
Target sequence in this assay (P27487 whole entry, looked up): as above

[4] = molecular target: T1, Dipeptidyl peptidase 4; experiment: Inhibition of DPP4 at 10 mM
Target sequence in this assay (P27487 whole entry, looked up): as above

[5] = molecular target: T1, Dipeptidyl peptidase 4; experiment: Inhibition of DPP4
Target sequence in this assay (P27487 whole entry): as the sequence (P27487 whole entry, looked up) above

[6] = molecular target: Dipeptidyl peptidase 4 (Sus scrofa, UniProt P22411); experiment: Inhibition of pig DPP4
Chain of Dipeptidyl peptidase 4 (Sus scrofa, UniProt P22411) (P22411 whole entry): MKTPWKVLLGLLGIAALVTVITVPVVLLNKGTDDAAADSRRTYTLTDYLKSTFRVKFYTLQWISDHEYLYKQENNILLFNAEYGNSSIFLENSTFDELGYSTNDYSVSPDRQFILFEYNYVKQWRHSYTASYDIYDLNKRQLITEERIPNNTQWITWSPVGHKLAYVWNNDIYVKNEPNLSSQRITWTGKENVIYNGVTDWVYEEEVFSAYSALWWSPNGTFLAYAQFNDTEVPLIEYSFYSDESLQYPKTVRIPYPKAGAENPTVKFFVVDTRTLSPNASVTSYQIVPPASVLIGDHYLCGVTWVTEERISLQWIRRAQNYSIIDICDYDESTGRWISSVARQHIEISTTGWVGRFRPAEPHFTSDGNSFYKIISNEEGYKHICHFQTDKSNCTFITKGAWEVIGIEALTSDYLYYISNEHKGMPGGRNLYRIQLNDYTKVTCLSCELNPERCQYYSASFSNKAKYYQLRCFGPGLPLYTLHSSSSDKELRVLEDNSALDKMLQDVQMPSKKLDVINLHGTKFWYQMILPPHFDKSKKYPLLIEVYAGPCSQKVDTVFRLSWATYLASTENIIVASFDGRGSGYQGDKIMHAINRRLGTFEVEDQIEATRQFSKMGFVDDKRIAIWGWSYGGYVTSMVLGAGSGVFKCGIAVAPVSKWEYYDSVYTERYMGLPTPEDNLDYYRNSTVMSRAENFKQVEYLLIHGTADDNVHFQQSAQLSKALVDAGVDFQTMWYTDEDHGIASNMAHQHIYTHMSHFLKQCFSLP

Chain of Dipeptidyl peptidase 4 (Sus scrofa) (P22411 whole entry, looked up): as the sequence (P22411 whole entry) above

With CC(C)n1c(/C=C/[C@@H](O)C[C@@H](O)CC(=O)O)c(-c2ccc(F)cc2)c2ccccc21 the inhibition [1] was 8%.

CN(C)C(=N)NC(=N)N was tested, and the inhibition [2] was 21.9%, the Activity [3] was “inactive” and the inhibition [4] was 12.7%.

For CC(C)c1nc(N(C)S(C)(=O)=O)nc(-c2ccc(F)cc2)c1/C=C/[C@@H](O)C[C@@H](O)CC(=O)O, the inhibition [1] was 4%.

Work on CN(C)C(=N)N=C(N)N [METFORMIN] yielded an IC50 [5] of 29 µM.

Work on CC(C)c1c(C(=O)Nc2ccccc2)c(-c2ccccc2)c(-c2ccc(F)cc2)n1CC[C@@H](O)C[C@@H](O)CC(=O)O [ATORVASTATIN] yielded an IC50 [6] of 175 µM and an inhibition [1] of 66%.
